From ChEMBL document CHEMBL1201862, “PubChem BioAssay data set” (2004)
Activity calls are given as the source filed them.

Test system: not listed separately
Experiment: NIH-3T3 fibroblast cytotoxicity, dose response, cytotoxicity control, cell-based, fluorescence, Alamar Blue, secondary assay (AID 2327);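 also: NIH-3T3 mouse fibroblasts cultured with fluconazole at 8 µg/mL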
Format: functional
Details: not given

Structure (SMILES) | EC50
CC(c1ccc(Cl)cc1)n1c(S)nnc1-c1ccc2ccccc2n1 (stereo unspecified) | > 160 µM (inactive)

Molecular target: T1, Microphthalmia-associated transcription factor (Homo sapiens, UniProt O75030)
T1 sequence (O75030 whole entry): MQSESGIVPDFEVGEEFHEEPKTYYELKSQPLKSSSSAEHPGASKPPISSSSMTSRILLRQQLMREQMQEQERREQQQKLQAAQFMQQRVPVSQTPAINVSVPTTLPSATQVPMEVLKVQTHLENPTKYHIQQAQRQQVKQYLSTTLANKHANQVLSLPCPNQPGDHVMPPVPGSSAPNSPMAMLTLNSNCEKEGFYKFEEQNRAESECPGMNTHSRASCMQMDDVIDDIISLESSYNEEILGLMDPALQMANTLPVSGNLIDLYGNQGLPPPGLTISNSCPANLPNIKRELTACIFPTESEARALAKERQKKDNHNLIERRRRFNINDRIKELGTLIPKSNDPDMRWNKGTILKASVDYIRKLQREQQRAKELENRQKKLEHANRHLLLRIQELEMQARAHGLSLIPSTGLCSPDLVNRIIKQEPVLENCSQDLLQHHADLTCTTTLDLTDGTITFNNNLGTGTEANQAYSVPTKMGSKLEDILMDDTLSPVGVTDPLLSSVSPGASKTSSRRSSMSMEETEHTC
Experiment: reducers of TRPM1 reporter luminescence, concentration series – cell-based, SK-MEL-5, cherry-picked, set 3, MITF inhibitor project, dose response (AID 493073);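 also: SK-MEL-5 melanoma cells with luciferase driven by the MITF target TRPM1 promoter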
Format: functional
Details: not given

Structure (SMILES) | AC50
O=C(/C=C/c1ccc([N+](=O)[O-])s1)N1CCCCC1 | 4.16 µM (active)

Molecular target: Cytochrome P450 2D6 (Homo sapiens, UniProt P10635);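 also: CYP2D6 member of a cytochrome P450 panel assay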
Experiment: not given
Details: not given

Sequence of Cytochrome P450 2D6 (P10635 whole entry): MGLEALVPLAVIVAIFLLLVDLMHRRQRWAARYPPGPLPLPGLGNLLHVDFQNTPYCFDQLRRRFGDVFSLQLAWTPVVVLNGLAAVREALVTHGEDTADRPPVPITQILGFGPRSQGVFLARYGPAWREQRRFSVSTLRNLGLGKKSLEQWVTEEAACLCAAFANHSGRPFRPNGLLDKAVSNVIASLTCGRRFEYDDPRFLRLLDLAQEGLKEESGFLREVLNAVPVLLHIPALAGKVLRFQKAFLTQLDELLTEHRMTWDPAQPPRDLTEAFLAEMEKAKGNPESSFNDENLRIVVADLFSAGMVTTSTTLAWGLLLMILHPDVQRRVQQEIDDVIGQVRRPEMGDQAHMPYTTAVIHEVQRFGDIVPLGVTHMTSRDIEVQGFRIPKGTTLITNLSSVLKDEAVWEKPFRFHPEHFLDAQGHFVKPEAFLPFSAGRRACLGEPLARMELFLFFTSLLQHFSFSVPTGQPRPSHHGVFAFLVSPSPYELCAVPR

Structure (SMILES) | AC50
CC(c1ccc(Cl)cc1)n1c(S)nnc1-c1ccc2ccccc2n1 (stereo unspecified) | 39.8 µM (inconclusive)

Test system: not listed separately
Experiment: fluconazole-exposed Candida albicans growth modulators – fluorescence, retest, confirmation (AID 2467)
Format: functional, cell-based
Details: not given

Structure (SMILES) | EC50
CC(c1ccc(Cl)cc1)n1c(S)nnc1-c1ccc2ccccc2n1 (stereo unspecified) | 4.24 µM (active)

Molecular target: T2, Replicative DNA helicase DnaB (Mycobacterium tuberculosis, UniProt P9WMR3)
T2 sequence (P9WMR3 whole entry): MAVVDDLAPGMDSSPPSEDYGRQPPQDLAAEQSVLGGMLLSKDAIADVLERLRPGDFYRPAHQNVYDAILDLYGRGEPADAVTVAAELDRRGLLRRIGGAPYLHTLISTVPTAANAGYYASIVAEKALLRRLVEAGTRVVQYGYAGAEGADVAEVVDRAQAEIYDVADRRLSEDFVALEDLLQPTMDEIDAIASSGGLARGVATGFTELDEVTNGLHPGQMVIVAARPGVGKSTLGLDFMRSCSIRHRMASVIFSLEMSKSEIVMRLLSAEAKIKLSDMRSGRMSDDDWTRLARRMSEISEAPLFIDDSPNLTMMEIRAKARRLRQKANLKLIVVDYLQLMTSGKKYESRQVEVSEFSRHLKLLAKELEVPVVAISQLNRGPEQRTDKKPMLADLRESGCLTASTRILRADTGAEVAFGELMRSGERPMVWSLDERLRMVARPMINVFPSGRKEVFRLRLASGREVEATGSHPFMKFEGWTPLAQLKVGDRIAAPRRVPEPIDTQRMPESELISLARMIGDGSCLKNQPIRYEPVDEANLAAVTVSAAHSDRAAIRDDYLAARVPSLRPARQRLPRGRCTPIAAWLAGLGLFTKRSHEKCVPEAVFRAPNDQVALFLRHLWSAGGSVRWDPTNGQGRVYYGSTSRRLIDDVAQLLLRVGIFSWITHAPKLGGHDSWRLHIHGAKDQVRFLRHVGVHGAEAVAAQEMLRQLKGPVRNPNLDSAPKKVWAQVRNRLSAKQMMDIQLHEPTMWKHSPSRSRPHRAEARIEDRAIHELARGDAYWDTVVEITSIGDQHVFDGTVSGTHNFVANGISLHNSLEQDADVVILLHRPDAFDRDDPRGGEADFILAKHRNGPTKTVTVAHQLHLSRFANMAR
Experiment: DnaB intein splicing inhibitors, dose response, biochemical, cell-free fluorescence (AID 449749)
Format: functional
Details: not given

Structure (SMILES) | AC50
O=C(NCC1(c2ccccc2)CCCC1)C1(c2ccccc2)CCCC1 | 10 µM (active)
CCN(C(=O)c1ccc2c(Cl)c3c(nc2c1)CCC3)c1ccc(C)c(C)c1 | 14.1 µM (active)
O=C(CCl)N1CCN(S(=O)(=O)c2ccc3ccccc3c2)CC1 | 12.7 µM (active)

Molecular target: Paired box protein Pax-8 (Homo sapiens, UniProt Q06710)
Experiment: PAX8 transcriptional activity inhibition in RMG-I – RMG-I cells, luciferase, cherry-pick, dose response (AID 687027);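 also: luciferase reporter driven by Pax8 target thyroperoxidase promoter measured by SteadyGlo luminescence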
Format: functional, cell-based
Details: not given

Sequence of Paired box protein Pax-8 (Q06710 whole entry): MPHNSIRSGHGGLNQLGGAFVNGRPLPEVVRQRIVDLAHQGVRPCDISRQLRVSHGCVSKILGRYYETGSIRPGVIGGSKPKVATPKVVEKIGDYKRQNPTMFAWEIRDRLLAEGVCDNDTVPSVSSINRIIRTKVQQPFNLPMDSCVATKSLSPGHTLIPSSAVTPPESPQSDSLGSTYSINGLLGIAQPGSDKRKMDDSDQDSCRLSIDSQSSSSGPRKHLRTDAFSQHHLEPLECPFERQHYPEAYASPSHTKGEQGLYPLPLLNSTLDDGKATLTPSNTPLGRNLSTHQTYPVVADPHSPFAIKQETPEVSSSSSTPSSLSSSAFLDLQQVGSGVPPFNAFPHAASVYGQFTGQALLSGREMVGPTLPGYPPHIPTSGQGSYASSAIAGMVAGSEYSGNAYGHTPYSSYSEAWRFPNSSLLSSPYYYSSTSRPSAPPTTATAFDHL

Structure (SMILES) | AC50
O=C(C[C@H]1CC[C@H]2[C@@H](COC[C@@H](O)CN2Cc2ccc(Oc3ccccc3)cc2)O1)N1CCCCC1 | 15 µM (active)
COc1ccc(NC(=O)Nc2ccc3c(c2)C(=O)N([C@@H](C)CO)C[C@@H](C)[C@@H](CN(C)Cc2ccc(C(F)(F)F)cc2)OCCCC[C@@H](C)O3)cc1 | 8.18 µM (active)
COc1ccc(NC(=O)C(Sc2nnc(-c3ccncc3)n2-c2ccccc2C)c2ccccc2)cc1Cl (stereo unspecified) | 15.5 µM (active)

Test system: H9c2;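 also: confirmatory concentration-response retest of ultra-high-throughput screening hits for modulation of myocardial damage; cell death induced by hydrogen peroxide oxidative stress; compound pretreatment for 60 min then peroxide exposure for 2 h; potency is for protecting the cells against peroxide damage rather than for killing them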
Experiment: cells
Format: functional, cell-based
Details: Rattus norvegicus, H9c2, Myocardium

Structure (SMILES) | IC50
O=C(NCCc1ccc(F)cc1)C(=O)Nc1cc2c3c(c1)CC(=O)N3CCC2 | > 79 µM (inactive)
CC(=O)Nc1ccc(C(=O)N/N=C/c2ccccc2OC(=O)c2ccc(Cl)cc2)cc1 | 8.26 µM (active)
Oc1nnc(CNc2ccc(C(F)(F)F)cc2)c2ccccc12 | 27.5 µM (active)
O=C(Cn1[nH]c(=O)c2ccccc2c1=O)NC1CCCCCC1 | 25.3 µM (active)
COc1ccnc(Oc2ccc(F)cc2)c1C(=O)N=CNOCc1ccc(Cl)cc1Cl | > 79 µM (inactive)
COc1cc(C(=O)NNC(=O)c2ccc3ccccc3n2)cc(OC)c1OC | 8.15 µM (active)
CCOc1cc(/C=N\NC(=O)c2ccc(NC(=O)C(C)(C)C)cc2)ccc1OC(=O)c1cccc(C)c1 | > 79 µM (inactive)
CC(OC(=O)Cc1nnc(O)c2ccccc12)C(=O)Nc1cc(Cl)cc(Cl)c1 (stereo unspecified) | 20.8 µM (active)

Molecular target: T3, Protein RecA (Mycobacterium tuberculosis, UniProt P9WHJ3)
T3 sequence (P9WHJ3 whole entry): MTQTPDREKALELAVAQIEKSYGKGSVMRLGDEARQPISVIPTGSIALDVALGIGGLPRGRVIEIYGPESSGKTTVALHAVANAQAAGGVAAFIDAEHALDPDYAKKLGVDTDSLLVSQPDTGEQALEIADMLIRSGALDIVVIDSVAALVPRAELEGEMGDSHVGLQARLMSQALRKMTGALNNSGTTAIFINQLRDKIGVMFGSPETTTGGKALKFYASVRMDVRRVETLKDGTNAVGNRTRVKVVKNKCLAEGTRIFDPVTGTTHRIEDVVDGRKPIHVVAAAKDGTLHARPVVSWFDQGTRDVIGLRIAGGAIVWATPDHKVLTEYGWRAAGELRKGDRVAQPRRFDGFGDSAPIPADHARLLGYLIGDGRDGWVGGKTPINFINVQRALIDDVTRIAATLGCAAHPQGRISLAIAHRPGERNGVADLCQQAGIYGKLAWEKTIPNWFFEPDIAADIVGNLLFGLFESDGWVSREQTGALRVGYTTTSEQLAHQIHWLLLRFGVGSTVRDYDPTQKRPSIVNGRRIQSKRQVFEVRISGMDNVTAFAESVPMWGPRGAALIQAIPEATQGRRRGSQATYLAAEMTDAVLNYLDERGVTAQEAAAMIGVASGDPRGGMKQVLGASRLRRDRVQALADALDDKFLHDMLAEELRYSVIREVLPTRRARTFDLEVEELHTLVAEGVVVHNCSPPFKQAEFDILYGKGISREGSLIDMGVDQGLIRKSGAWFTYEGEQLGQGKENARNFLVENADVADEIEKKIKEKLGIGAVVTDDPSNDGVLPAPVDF
Experiment: Fluorescence Cell-Free Homogeneous Dose Retest to Identify Inhibitors of RecA-Intein Splicing Activity. [Related pubchem assays (depositor defined):AID2097, AID2223, AID489010, AID492950]
Format: functional
Details: not given

Structure (SMILES) | EC50
O=C(NCC1(c2ccccc2)CCCC1)C1(c2ccccc2)CCCC1 | 53.3 µM (active)
CCN(C(=O)c1ccc2c(Cl)c3c(nc2c1)CCC3)c1ccc(C)c(C)c1 | 2.59 µM (active)
O=C(CCl)N1CCN(S(=O)(=O)c2ccc3ccccc3c2)CC1 | 1.58 µM (active)
